Read-outs that look alike come from different tables or passages of the source.
What was measured:
bacteria = assay: Antibacterial / antimicrobial effect of comparison peptides; type: cell-based
S. carnosus [1] = type: cell-based, Staphylococcus carnosus
Method: To determine the minimal inhibitory concentration of casocidin-I under the influence of the medium strength or in the presence of bivalent cations, a dilution assay was performed in 96-well cell culture clusters. After diluting the peptide in 50 μl medium (tryptic soy broth, Sigma, Germany) with adjusted pH 7.2, ion concentrations or medium strength on one plate, the same amount of medium with appr. 2-4*10^3 bacteria in 50 μl medium were added to the diluted samples. The incubations were done overnight at 37° C. The minimal inhibitory concentration was manually read using a microscope.

[2] = Storage of lyophilized peptide; type: physicochemical; conditions: room temperature
[3] = test system: E. coli transformed with the plasmid pUC18; assay: Membrane permeabilization, release of beta-galactosidase and beta-lactamase; type: cell-based; conditions: 37° C. for 30 min, FIG. 5
Method: The beta-galactosidase indicated the degree of the permeabilization of the inner membrane (IM) of E. coli. The permeabilization of the outer membrane was monitored by determination of released beta-Lactamase (plasmid coded) mainly present in the periplasmatic space.
To measure the relative release of beta-galactosidase a suspension of E. coli grown overnight in LB medium was washed once in phosphate buffer (10 mM, pH 7.0). Afterwards the bacteria were resuspended to a final density of app. 0.5 A600. Peptide fractions were lyophilized in 1.5 ml tubes in a speed vac concentrator and solved in 40 μl phosphate buffer. To the peptide solution a volume of 200 μl bacterial suspension was added and the incubation was performed at 37° C. for 30 min. As a control, to determine the maximum of the enzyme release, bacteria were disrupted by ultrasonic treatment (about 100 joules in 10 sec). […] The absorbance of the samples at 405 nm was measured and the increase of each absorbance was normalized to the sonified sample assuming enzymatic release of 100%.
To detect the release of beta-lactamase the supernatants of E. coli were prepared as described for the beta-galactosi-dase. […] The samples were incubated for 45 min at 37° C. in the dark and the absorbance was measured at a wavelength of 700 nm and the normalization was done with the results gained with sonified samples.

R. rubra = assay: Preincubation experiment (determination of CFU); type: cell-based, Rhodotorula rubra; conditions: incubated at 37° C. for 120 min, interpolated from FIG. 3
Method: (§1) Exponentially grown bacteria with a density corresponding to an A600 of 0.4 to 0.6, were initially diluted 1:10^5 in 10 mM phosphate buffer (Na—P, pH 7.2) or phosphate buffered saline (PBS, pH 7.4) and incubated at 37° C. for 120 min in Na—P or PBS supplemented with different concentrations of peptides. After this period the reaction mixtures were diluted 1:10 and 1:100 in the same buffer and plated on LB-Agar to determine the colony forming units (CFU). The plating were done in triplets. The colonies were counted with a colony counter (Darkfield, Quebec, Canada).
(§2) An example for the depletion of viable bacteria gives FIG. 2 showing that a time dependent killing of the bacteria during incubation occurs. The interpolation of the date gives the following order of sensitivity of the used strains B. subtilis>S. carnosus=S. epidermidis>Rhodotorula >>E. coli>Enterococcus faecium ATCC 35667. The concentration necessary to reduce the colony forming units (CFU) to 50% of the initial CFU ranges from 180 μg/ml (E. faecium) over 20 μg/ml (E. coli, S. carnosus, R. rubra) to 1 μg/ml for B. subtilis indicating a potent inhibitory effect of the used peptide.

[4] = test system: Enterococcus faecium ATCC 35667; assay: Preincubation experiment (determination of CFU); type: cell-based; conditions: E. faecium; incubated at 37° C. for 120 min; interpolated from FIG. 3
Method: as §1, §2

B. subtilis = assay: Preincubation experiment (determination of CFU); type: cell-based; conditions: incubated at 37° C. for 120 min, interpolated from FIG. 3
Method: as §1, §2

E. coli = assay: Preincubation experiment (determination of CFU); type: cell-based; conditions: incubated at 37° C. for 120 min, interpolated from FIG. 3
Method: as §1, §2

S. carnosus [5] = assay: Preincubation experiment (determination of CFU); type: cell-based, Staphylococcus carnosus; conditions: incubated at 37° C. for 120 min, interpolated from FIG. 3
Method: as §1, §2

Compound	antibacterial / antimicrobial effect (bacteria)	MIC (S. carnosus [1]; bivalent cation 2.5 mM Ca)	MIC (S. carnosus [1]; bivalent cation 2.5 mM Mn)	MIC (S. carnosus [1]; medium strength 1 (tryptic soy broth, pH 7.2))	potency when lyophilized, storage [2]	mechanism of action: release of intracellular enzymes beta-galactosidase and beta-lactamase [3]	concentration necessary to reduce the colony forming units (CFU) to 50% of the initial CFU (R. rubra) [µg/mL]	concentration necessary to reduce the colony forming units (CFU) to 50% of the initial CFU [4] [µg/mL]	concentration necessary to reduce the colony forming units (CFU) to 50% of the initial CFU (B. subtilis) [µg/mL]	concentration necessary to reduce the colony forming units (CFU) to 50% of the initial CFU (E. coli) [µg/mL]	concentration necessary to reduce the colony forming units (CFU) to 50% of the initial CFU (S. carnosus [5]) [µg/mL]
QRYQ	not sufficient to gain antimicrobial properties										
CC[C@H](C)[C@H](NC(=O)[C@H](CCCCN)NC(=O)[C@H](CCCCN)NC(=O)[C@H](CC(C)C)NC(=O)[C@H](Cc1ccccc1)NC(=O)[C@H](CC(N)=O)NC(=O)[C@H](CC(C)C)NC(=O)[C@H](CCCNC(=N)N)NC(=O)[C@H](CC(N)=O)NC(=O)[C@H](CCCCN)NC(=O)[C@H](CCC(=O)O)NC(=O)[C@H](CCC(=O)O)NC(=O)[C@H](CCC(=O)O)NC(=O)[C@@H](NC(=O)[C@H](CC(C)C)NC(=O)[C@H](CCCCN)NC(=O)[C@@H](NC(=O)[C@@H](N)CCCCN)[C@@H](C)O)[C@@H](C)O)C(=O)N[C@@H](CO)C(=O)N[C@@H](CCC(N)=O)C(=O)N[C@@H](CCCNC(=N)N)C(=O)N[C@@H](Cc1ccc(O)cc1)C(=O)N[C@@H](CCC(N)=O)C(=O)N[C@@H](CCCCN)C(=O)N[C@@H](Cc1ccccc1)C(=O)N[C@@H](C)C(=O)N[C@@H](CC(C)C)C(=O)N1CCC[C@H]1C(=O)N[C@@H](CCC(N)=O)C(=O)N[C@@H](Cc1ccc(O)cc1)C(=O)N[C@@H](CC(C)C)C(=O)N[C@@H](CCCCN)C(=O)N[C@H](C(=O)N[C@H](C(=O)N[C@@H](Cc1ccc(O)cc1)C(=O)N[C@@H](CCC(N)=O)C(=O)N[C@@H](Cc1c[nH]cn1)C(=O)N[C@@H](CCC(N)=O)C(=O)N[C@@H](CCCCN)C(=O)O)C(C)C)[C@@H](C)O [casocidin-I]		no	no	no	keeps its potency when lyophilized	membrane permeabilizing effect	20	180	1	20	20

— patent US6579849B2, “Antibiotic peptides from bovine milk” (HaemoPep Pharma GmbH, priority 1998, dated 2003)
